Laboratory results reported in US8575158B2, “1-phenyl-substituted heterocyclyl derivatives and their use as prostaglandin D2 receptor modulators” (Actelion Pharmaceuticals Ltd., priority 2010, dated 2013).

Target: T1, hCRTH2 receptor (Homo sapiens, UniProt Q9Y5Y4)
T1 construct: expressed in transfected cells; host or cells: HEK293
T1 sequence (Q9Y5Y4 1-395): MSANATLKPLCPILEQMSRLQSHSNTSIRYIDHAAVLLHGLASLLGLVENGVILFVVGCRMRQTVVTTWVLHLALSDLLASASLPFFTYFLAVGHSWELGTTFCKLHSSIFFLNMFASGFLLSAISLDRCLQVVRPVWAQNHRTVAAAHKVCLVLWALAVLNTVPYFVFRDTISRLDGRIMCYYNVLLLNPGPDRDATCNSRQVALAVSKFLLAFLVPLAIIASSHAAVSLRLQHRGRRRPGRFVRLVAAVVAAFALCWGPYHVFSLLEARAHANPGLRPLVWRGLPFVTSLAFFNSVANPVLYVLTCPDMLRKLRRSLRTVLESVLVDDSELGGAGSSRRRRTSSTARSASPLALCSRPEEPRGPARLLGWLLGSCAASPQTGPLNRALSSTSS
Assay: Radioligand displacement assay (3H-PGD2) on hCRTH2 receptor membranes
Assay type: binding
Settings: antagonistic activity

[1] = 3H-PGD2 radioligand displacement, HEK293-hCRTH2 membranes
[2] = 3H-PGD2 displacement on HEK293-hCRTH2 membrane fragments

SMILES | IC50 [1] | IC50 [2]
O=C(O)COc1ccc(Cl)cc1C1c2ccccc2CN1C(=O)NCCc1ccccc1 (racemic) [Example 556] | 11.7 nM | –
O=C(O)COc1ccc(Cl)cc1[C@@H]1c2ccc(F)c(F)c2CCN1C(=O)OCCc1cccc(F)c1 [Example 311, (S)-1-(2-Carboxymethoxy-5-chloro-phenyl)-5,6-difluoro-3,4-dihydro-1H-isoquinoline-2-carboxylic acid 2-(3-fluoro-phenyl)-ethyl ester] | 11 nM | –
Cc1ccc(CCCC(=O)N2CCc3ccccc3C2c2cc(Cl)ccc2OCC(=O)O)cc1 (racemic) [Example 97, (±)-{4-Chloro-2-[2-(4-p-tolyl-butyryl)-1,2,3,4-tetrahydro-isoquinolin-1-yl]-phenoxy}-acetic acid] | – | 9.7 nM
COc1ccccc1[C@@H]1C[C@H]1C(=O)N1CCc2ccccc2C1c1cc(Cl)ccc1OCC(=O)O (mixture of isomers) [Example 159] | – | 21.2 nM
O=C(O)COc1ccc(F)cc1C1c2ccccc2CCN1C(=O)CCc1ccccc1 (racemic) [Example 123, (±)-{4-Fluoro-2-[2-(3-phenyl-propionyl)-1,2,3,4-tetrahydro-isoquinolin-1-yl]-phenoxy}-acetic acid] | – | 152 nM
CC[C@@H]1C[C@H]1C(=O)N1CCc2ccccc2[C@H]1c1cc(Cl)ccc1OCC(=O)O [Example 460] | 67.8 nM | –
Cn1nc(COC(=O)N2CCc3ccccc3[C@H]2c2cc(Cl)ccc2OCC(=O)O)c2ccccc21 [Example 296, (S)-1-(2-Carboxymethoxy-5-chloro-phenyl)-3,4-dihydro-1H-isoquinoline-2-carboxylic acid 1-methyl-1H-indazol-3-ylmethyl ester] | 1.72 nM | –
C[C@H](Oc1ccc(F)cc1C1c2ccccc2CCN1C(=O)OCc1ccccc1)C(=O)O (stereo partly drawn) [Example 2, 1-[2-((S)-1-Carboxy-ethoxy)-5-fluoro-phenyl]-3,4-dihydro-1H-isoquinoline-2-carboxylic acid benzyl ester] | – | 499 nM
O=C(O)COc1ccc(F)cc1C1c2ccccc2CCN1C(=O)Cc1csc2ccccc12 (racemic) [Example 58, (±)-{2-[2-(2-Benzo[b]thiophen-3-yl-acetyl)-1,2,3,4-tetrahydro-isoquinolin-1-yl]-4-fluoro-phenoxy}-acetic acid] | – | 123 nM
COc1ccc(COC(=O)N2CCc3ccccc3C2c2cc(Cl)ccc2OCC(=O)O)cc1 (racemic) [Example 361] | 22.8 nM | –
C[C@@H](Oc1ccc(C#N)cc1C1c2ccccc2CCN1C(=O)OCc1ccccc1)C(=O)O (stereo partly drawn) [Example 13, 1-[2-((R)-1-Carboxy-ethoxy)-5-cyano-phenyl]-3,4-dihydro-1H-isoquinoline-2-carboxylic acid benzyl ester] | – | 11 nM
O=C(O)COc1ccc(Cl)cc1C1c2ccccc2CCN1C(=O)CCCc1cccc(F)c1 (racemic) [Example 108, (±)-(4-Chloro-2-{2-[4-(3-fluoro-phenyl)-butyryl]-1,2,3,4-tetrahydro-isoquinolin-1-yl}-phenoxy)-acetic acid] | – | 35.9 nM
O=C(O)COc1ccc(Cl)cc1C1c2cccc(F)c2CCN1C(=O)OCCc1ccccc1Cl (racemic) [Example 179, (±)-1-(2-Carboxymethoxy-5-chloro-phenyl)-5-fluoro-3,4-dihydro-1H-isoquinoline-2-carboxylic acid 2-(2-chloro-phenyl)-ethyl ester] | – | 39.5 nM
O=C(O)COc1ccc(Cl)cc1C1c2ccccc2CCN1C(=O)COc1cnccc1Cl (racemic) [Example 487] | 400 nM | –
O=C(O)COc1ccc(F)cc1C1c2ccccc2CCN1C(=O)CCOc1ccccc1 (racemic) [Example 144, (±)-{4-Fluoro-2-[2-(3-phenoxy-propionyl)-1,2,3,4-tetrahydro-isoquinolin-1-yl]-phenoxy}-acetic acid] | – | 73.9 nM
O=C(O)COc1ccc(Cl)cc1C1c2ccccc2CCN1C(=O)Cc1ccccc1Cl (racemic) [Example 71, (±)-(4-Chloro-2-{2-[2-(2-chloro-phenyl)-acetyl]-1,2,3,4-tetrahydro-isoquinolin-1-yl}-phenoxy)-acetic acid] | – | 291 nM
Cc1nn(CCC(=O)N2CCc3cc(F)ccc3[C@H]2c2cc(Cl)ccc2OCC(=O)O)c2cc(F)ccc12 [Example 393] | 154 nM | –
CN(CC(=O)N1CCc2ccccc2C1c1cc(Cl)ccc1OCC(=O)O)c1ccccc1 (racemic) [Example 439] | 379 nM | –
O=C(O)COc1ccc(F)cc1C1c2ccccc2CCN1C(=O)/C=C/c1ccccc1F (racemic) [Example 141, (±)-(4-Fluoro-2-{2-[(E)-3-(2-fluoro-phenyl)-acryloyl]-1,2,3,4-tetrahydro-isoquinolin-1-yl}-phenoxy)-acetic acid] | – | 835 nM

SMILES | IC50 [1] | IC50 [2]
O=C(O)COc1ccc(Cl)cc1C1c2ccccc2CCN1C(=O)COc1ccc(Cl)nc1 (racemic) [Example 472] | 109 nM | –
COc1cc(OCC(=O)N2CCc3ccccc3C2c2cc(Cl)ccc2OCC(=O)O)cnc1OC (racemic) [Example 485] | 316 nM | –
O=C(O)COc1ccc(F)cc1[C@@H]1c2ccccc2CCN1C(=O)[C@@H]1C[C@H]1c1ccccc1 (single isomer, unassigned) [Example 30] | – | 912 nM
Cc1cc(C)n(CCOC(=O)N2CCc3c(ccc(F)c3F)[C@H]2c2cc(Cl)ccc2OCC(=O)O)n1 [Example 316, (S)-1-(2-Carboxymethoxy-5-chloro-phenyl)-5,6-difluoro-3,4-dihydro-1H-isoquinoline-2-carboxylic acid 2-(3,5-dimethyl-pyrazol-1-yl)-ethyl ester] | 5.07 nM | –
O=C(O)COc1ccc(F)cc1C1c2ccccc2CCN1C(=O)CCc1c[nH]c2ccccc12 (racemic) [Example 51, (±)-{4-Fluoro-2-[2-(3-1H-indol-3-yl-propionyl)-1,2,3,4-tetrahydro-isoquinolin-1-yl]-phenoxy}-acetic acid] | – | 30.1 nM
O=C(O)COc1ccc(Cl)cc1C1c2ccccc2CN1C(=O)CCOc1cccc(F)c1 (racemic) [Example 517] | 123 nM | –
COc1ccc(COCC(=O)N2CCc3ccccc3C2c2cc(F)ccc2OCC(=O)O)cc1 (racemic) [Example 196] | – | 146 nM
Cn1nccc1COC(=O)N1CCc2cc(F)ccc2[C@H]1c1cc(Cl)ccc1OCC(=O)O [Example 337, (S)-1-(2-Carboxymethoxy-5-chloro-phenyl)-6-fluoro-3,4-dihydro-1H-isoquinoline-2-carboxylic acid 2-methyl-2H-pyrazol-3-ylmethyl ester] | 3.61 nM | –
O=C(O)COc1ccc(Cl)cc1C1c2ccccc2CN1C(=O)CCn1ncc2cc(Cl)ccc21 (centres unmarked) [Example 544] | 340 nM | –
Cc1cccc(COCC(=O)N2CCc3ccccc3C2c2cc(F)ccc2OCC(=O)O)c1 (racemic) [Example 193] | – | 27.7 nM
Cc1noc(C)c1COC(=O)N1CCc2c(ccc(F)c2F)[C@H]1c1cc(Cl)ccc1OCC(=O)O [Example 307, (S)-1-(2-Carboxymethoxy-5-chloro-phenyl)-5,6-difluoro-3,4-dihydro-1H-isoquinoline-2-carboxylic acid 3,5-dimethyl-isoxazol-4-ylmethyl ester] | 3.34 nM | –
O=C(O)COc1ccc(Cl)cc1C1c2ccccc2CCN1C(=O)CCOc1cccc(Cl)c1 (racemic) [Example 95, (±)-(4-Chloro-2-{2-[3-(3-chloro-phenoxy)-propionyl]-1,2,3,4-tetrahydro-isoquinolin-1-yl}-phenoxy)-acetic acid] | – | 27.5 nM
O=C(O)COc1ccc(Cl)cc1C1c2cccc(F)c2CCN1C(=O)[C@@H]1C[C@H]1c1ccccc1 (relative stereo) [Example 117, {4-Chloro-2-[5-fluoro-2-(trans-2-phenyl-cyclopropanecarbonyl)-1,2,3,4-tetrahydro-isoquinolin-1-yl]-phenoxy}-acetic acid] | – | 32.5 nM
CC1(C)CN(C(=O)OCc2ccccc2)C(c2cc(Cl)ccc2OCC(=O)O)c2ccccc21 (racemic) [Example 180, (±)-1-(2-Carboxymethoxy-5-chloro-phenyl)-4,4-dimethyl-3,4-dihydro-1H-isoquinoline-2-carboxylic acid benzyl ester] | – | 151 nM
Cc1ccc(CCC(=O)N2CCc3ccccc3C2c2cc(Cl)ccc2OCC(=O)O)c(C)c1 (racemic) [Example 454] | 69.6 nM | –
COc1ccc(OC(=O)N2CCc3ccccc3C2c2cc(F)ccc2OCC(=O)O)cc1 (racemic) [Example 173] | – | 102 nM
O=C(O)COc1ccc(Br)cc1C1c2cc(F)c(F)cc2CCN1C(=O)OCc1ccccc1 (racemic) [Example 10, (±)-1-(5-Bromo-2-carboxymethoxy-phenyl)-6,7-difluoro-3,4-dihydro-1H-isoquinoline-2-carboxylic acid benzyl ester] | – | 74 nM
O=C(O)COc1ccc(Cl)cc1C1c2ccccc2CCN1C(=O)Cc1csc2ccc(Cl)cc12 (racemic) [Example 98, (±)-(4-Chloro-2-{2-[2-(5-chloro-benzo[b]thiophen-3-yl)-acetyl]-1,2,3,4-tetrahydro-isoquinolin-1-yl}-phenoxy)-acetic acid] | – | 124 nM
Cc1cccc2c1CCN(C(=O)OCc1ccccc1)C2c1cc(F)ccc1OCC(=O)O (racemic) [Example 39, (±)-1-(2-Carboxymethoxy-5-fluoro-phenyl)-5-methyl-3,4-dihydro-1H-isoquinoline-2-carboxylic acid benzyl ester] | – | 22.2 nM
